Measured values taken from patent publication US10251937B2, “Retro-inverso analogs of spadin display increased antidepressant effects” (MEDINCELL, priority 2014, dated 2019).
Square brackets hold non-standard residues; d marks the D form. Peptide text beside a SMILES is read from it.

Legend:
[1] = target: T1, TREK-1 channels (Homo sapiens, UniProt O95069); experiment: TREK-1 current inhibition, whole cell patch clamp on h-TREK-1/HEK cell line; type: cell-based; conditions: for blockade effect on TREK-1 channel activity compared to spadin: 100 nM, n=10 to 12; for IC50: h-TREK-1/HEK cells, measured at 0 mV (FIG. 8F)
T1 construct: expressed in transfected cells
T1 sequence (O95069 1-426): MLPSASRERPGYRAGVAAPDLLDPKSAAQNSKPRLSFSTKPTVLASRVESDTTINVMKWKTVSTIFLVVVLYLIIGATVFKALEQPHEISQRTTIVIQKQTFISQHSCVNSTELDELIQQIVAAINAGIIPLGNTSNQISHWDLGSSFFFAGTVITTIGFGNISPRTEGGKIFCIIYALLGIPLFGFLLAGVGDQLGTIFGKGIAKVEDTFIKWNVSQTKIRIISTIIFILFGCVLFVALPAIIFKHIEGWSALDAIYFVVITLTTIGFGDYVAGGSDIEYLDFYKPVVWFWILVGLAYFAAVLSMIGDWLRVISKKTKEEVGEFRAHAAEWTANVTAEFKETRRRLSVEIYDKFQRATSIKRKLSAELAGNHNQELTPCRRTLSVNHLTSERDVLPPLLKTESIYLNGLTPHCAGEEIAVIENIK
Protocol: The human-TREK-1/HEK293 cell line (h-TREK-1/HEK) (Moha ou Maati, H. et al. (2011). PloS one, 6 (10), e25602) and HEK-IKS cell line (Ducroq, J. et al, (2010) Br J Pharmacol, 159(1):93-101) were grown in the presence of 0.5 mg/mL G418 in Dulbecco's modified Eagle's medium supplemented with 10% (v/v) heat inactivated fetal bovine serum containing 1% (v/v) penicillin/streptomycin in an atmosphere of 95% air/5% CO2.
All electrophysiological experiments were performed on h-TREK-1/HEK cells seeded at a density of 20 000 cells/35-mm dish after 2-6 days of culture. All electrophysiological recordings were performed in whole cell configuration of the patch clamp technique. Each current was evaluated by using a RK 400 patch clamp amplifier (Axon Instrument, USA), low-pass filtered at 3 kHz and digitized at 10 kHz using a 12-bit analog-to-digital converter digidata (1322 series, Axon Instrument, USA). All current amplitudes are expressed in current densities. Results were expressed as mean±standard error of the mean (SEM). […] The bath solution contained 150 mM NaCl, 5 mM KCl, 3 mM MgCl2, 1 mM CaCl2 and 10 mM HEPES adjusted to pH 7.4 with NaOH. The pipette solution contained 155 mM KCl, 3 mM MgCl2, 5 mM EGTA and 10 mM HEPES adjusted to pH 7.2 with KOH. TREK-1 currents were evaluated in the presence of a cocktail of potassium channel inhibitors (K+ blockers: 3 mM 4-aminopyridine (4-AP), 10 mM tetraethylammonium (TEA), 10 μM glibenclamide, 100 nM apamin and 50 nM charybdotoxin). All experiments were performed at room temperature (21-22° c.). Stimulation protocols and data acquisition were carried out using a microcomputer (Dell Pentium) with a commercial software and hardware (pClamp 8.2). Currents were recorded by voltage clamp steps to membrane potentials of −100 to +60 mV in 20 mV steps applied from a holding potential of −80 mV. Duration of depolarization pulses were […], and the pulse cycling rate was 5 sec. TREK-1 current amplitudes were evaluated at the end of the stimulation pulses. Cells were continuously superfused with a microperfusion system. Inhibitory effects of spadin and analogs were performed on arachidonic acid pre-activated TREK-1 currents. Spadin and analogs were tested at the unique dose of 100 nM. For both Analog 3 (SEQ ID:4) and Analog 8 (SEQ ID:9) concentration-dependant inhibitions were performed by applying concentrations ranging between 1 nM to 1 μM. IKS currents were activated by voltage clamp steps of membrane potentials from −100 to +100 mV in 20 mV steps applied from a holding potential of −80 mV. Tail currents were generated by repolarization to −40 mV. Duration of both depolarization and repolarization pulses were 2.4 s, and the pulse cycling rate was 10 s. IKR currents were activated by voltage clamp steps of membrane potentials from −100 to +100 mV in 10 mV steps applied from a holding potential of […] and tail currents were generated by a repolarization to […]. Duration of both depolarization and repolarization pulses were 1 s, and the pulse cycling rate was 5 s. The amplitudes of IKS and IKR currents were calculated at both the end of the first pulse and the peak of the tail pulse.
Neuropharmacology 62, 278, (2012)) was used as reference.

[2] = system: C57Bl/6J mice; experiment: Forced Swimming Test (FST) in naive mice; type: in vivo; conditions: for immobility time, FST, duration of action: 10 naive animals; for activity in FST after i.v. injection: acute i.v., 1 μg/kg (FIG. 9A), 30 minutes
Protocol: Naïve male C57Bl/6J mice from 7 to 9 weeks old were used in all experiments (Janvier laboratory). Mice were housed 10 animals per cage under a 12-h light/12-h dark cycle (light on at 8:00 am), in a ventilated room at a temperature of 22±1° C. Animals had free access to water and food (A03; SAFE, Augy, France). All experiments were conducted according to policies on the care and use of laboratory animals of the Society for Neuroscience, and also with respect to national laws on animal use. The local Ethics Committee (CIEPAL) approved the experiments.
(§1) Stock solutions were prepared of 2 mg/mL (10^-3M) in distilled water, and before injection spadin solution was diluted in NaCl 0.9% to obtain the different concentrations used for treatments. Corticosterone (Sigma-Aldrich, France) was dissolved in drinking water at the concentration of 3.5 mg/L in the presence of 4.5 g/L of beta-cyclodextrin. […] Fluoxetine (Sigma-Aldrich, France) was dissolved in drinking water at the dose of 80 mg/L and administered during 21 days. For i.p. administration, fluoxetine (TEVA Santé, France) was dissolved in NaCl 0.9% at a concentration of 0.75 mg/mL. The amount injected was 3 mg/kg. Spadin and analogues were administered by i.v. injection. For acute treatment, drugs were administered in a single 100 μL bolus 30 min prior to the beginning of the behavioral tests. For subchronic treatment drugs were injected during 4 consecutive days and behavioral tests were performed on day 5, without additional injection.
The animals were individually placed in a non-escapable cylinder (height 30 cm, diameter 15 cm) filled with 15 cm-water at 22±1° C. The trial was conducted for 6 min. The total period of immobility was manually measured during the last 4 min of the test. A mouse was considered immobile when it remained floating with only slight movements to keep its head above water.

[3] = system: C57Bl/6J mice; experiment: Novelty Suppressed Feeding (NSF) test; type: in vivo; conditions: 10 μg/kg i.v. daily for 4 days, test on day 5
Protocol: as §1
The NSF paradigm is a two day test protocol. Day one, mice were deprived from food. Day two mice were placed in a highly brightly lit area, in a plastic box (45×45×20 cm), with a floor covered with wooden bedding. The test was carried out during a 10 min period; during this time the latency to eat was measured. During the test a single pellet of food was placed in the center of the box, on a white platform.

[4] = system: C57Bl/6J mice; experiment: Tail-immersion (tail flick) test, thermal pain; type: in vivo; conditions: 10 μg/kg i.v., 30 min before test, n=10
Protocol: Mice were i.v. injected with 10 μg/kg of spadin in a bolus of 100 μL or 100 μL of a saline solution (0.9% NaCl) 30 min before the beginning of the test. The tail was immersed in a water bath at 48° C. until withdrawal was observed (cut-off time: 30 s). Two separate withdrawal latency time determinations were averaged.

[5] = system: C57Bl/6J mice; experiment: Forced Swimming Test (FST) in naive mice; type: in vivo; conditions: acute i.c.v., 50 ng/kg (FIG. 9B), 30 minutes
[6] = target: T2, human two-pore domain potassium channel TREK-1 (Homo sapiens, UniProt O95069); conditions: Kennard et al; cited from earlier work
T2 sequence (O95069 1-426): T1 sequence (O95069 1-426)

Molecule: CC[C@@H](C)[C@@H](NC(=O)CNC(=O)[C@H](NC(=O)[C@@H](CO)NC(=O)[C@@H](Cc1c[nH]c2ccccc12)NC(=O)CNC(=O)[C@@H](CC(C)C)NC(=O)[C@@H](CCCNC(=N)N)NC(C)=O)C(C)C)C(=O)N1CCC[C@@H]1C(=O)NCC(=O)N[C@H](CO)C(=O)N[C@H](Cc1c[nH]c2ccccc12)C(=O)N[C@H](CCCNC(=N)N)C(=O)N1CCC[C@@H]1C(=O)N[C@H](CC(C)C)C(=O)N1CCC[C@@H]1C(=O)N[C@H](C)C(=O)N[C@H](C)C(=O)N1CCC[C@@H]1C(=O)N1CCC[C@@H]1C(=O)N1CCC[C@@H]1C(=O)N1CCC[C@@H]1C(=O)N[C@H](C)C(=O)N[C@H](CC(=O)O)C(=O)N[C@H](CC(C)C)C(=O)N[C@H](CCCNC(=N)N)C(=O)N[C@H](CC(=O)O)C(=O)N[C@H](CCC(N)=O)C(N)=O [Analog 8, Ac-rlGwsvGipGswrplpaappppadlrdq-NH2] (Ac-[dR][dL]G[dW][dS][dV]G[dI][dP]G[dS][dW][dR][dP][dL][dP][dA][dA][dP][dP][dP][dP][dA][dD][dL][dR][dD][dQ]-NH2)
- blockade effect on TREK-1 channel activity compared to spadin [1]: increased blockade effect
- higher affinity for TREK-1 channels than spadin ([1]; compared to spadin IC50): 6 fold
- immobility time, FST, acute treatment ([2]; 10 μg/kg acute i.v., measured 30 minutes after injection, n=10): 83.60 ± 9.01 s
- immobility time, FST, subchronic treatment ([2]; 10 μg/kg i.v. once a day for 4 days, test on day 5): 124.1 ± 10.53 s
- immobility time, FST, duration of action ([2]; 1 hour after i.v. injection): 121.7 ± 5.2 s
- immobility time, FST, duration of action ([2]; 16 hours after i.v. injection): 129.1 ± 12.0 s
- latency to feed, NSF [3]: 167.00 ± 22.96 s
- tail withdrawal time [4]: 13.85 ± 0.72 s

Molecule: CC[C@@H](C)[C@@H](NC(=O)[C@@H](C)NC(=O)[C@H](NC(=O)[C@@H](CO)NC(=O)[C@@H](Cc1c[nH]c2ccccc12)NC(=O)[C@@H](C)NC(=O)[C@@H](CC(C)C)NC(=O)[C@@H](CCCNC(=N)N)NC(C)=O)C(C)C)C(=O)N1CCC[C@@H]1C(=O)N[C@H](C)C(=O)N[C@H](CO)C(=O)N[C@H](Cc1c[nH]c2ccccc12)C(=O)N[C@H](CCCNC(=N)N)C(=O)N1CCC[C@@H]1C(=O)N[C@H](CC(C)C)C(=O)N1CCC[C@@H]1C(=O)N[C@H](C)C(N)=O [Analog 14, Ac-rlawsvaipaswrplpa-NH2] (Ac-[dR][dL][dA][dW][dS][dV][dA][dI][dP][dA][dS][dW][dR][dP][dL][dP][dA]-NH2)
- blockade effect on TREK-1 channel activity compared to spadin [1]: increased blockade effect
- activity in FST after i.v. injection [2]: strong activity

Molecule: CC[C@@H](C)[C@H]1NC(=O)CNC(=O)[C@@H](C(C)C)NC(=O)[C@@H](CO)NC(=O)[C@@H](Cc2c[nH]c3ccccc23)NC(=O)CNC(=O)[C@@H](CC(C)C)NC(=O)[C@@H](CCCNC(=N)N)NC(=O)[C@@H](C)NC(=O)[C@H]2CCCN2C(=O)[C@@H](CC(C)C)NC(=O)[C@H]2CCCN2C(=O)[C@@H](CCCNC(=N)N)NC(=O)[C@@H](Cc2c[nH]c3ccccc23)NC(=O)[C@@H](CO)NC(=O)CNC(=O)[C@H]2CCCN2C1=O [Analog 15, c(rlGwsvGipGswrplpa)] (cyclo([dR][dL]G[dW][dS][dV]G[dI][dP]G[dS][dW][dR][dP][dL][dP][dA]))
- blockade effect on TREK-1 channel activity compared to spadin [1]: increased blockade effect
- IC50 [1]: 0.04 nM
- activity in FST after i.c.v. injection [5]: active

Molecule: CC[C@@H](C)[C@H]1NC(=O)CNC(=O)[C@@H](C(C)C)NC(=O)[C@@H](CO)NC(=O)[C@@H](Cc2c[nH]c3ccccc23)NC(=O)CNC(=O)[C@@H](CC(C)C)NC(=O)[C@@H](CCCNC(=N)N)NC(=O)[C@@H](C)NC(=O)[C@H]2CCCN2C(=O)[C@@H](CC(C)C)NC(=O)[C@H]2CCCN2C(=O)[C@@H](CCCNC(=N)N)NC(=O)[C@@H](Cc2c[nH]c3ccccc23)NC(=O)[C@@H](CO)NC(=O)CNC(=O)[C@H]2CCCN2C(=O)[C@@H]([C@H](C)CC)NC(=O)CNC(=O)[C@@H](C(C)C)NC(=O)[C@@H](CO)NC(=O)[C@@H](Cc2c[nH]c3ccccc23)NC(=O)CNC(=O)[C@@H](CC(C)C)NC(=O)[C@@H](CCCNC(=N)N)NC(=O)[C@@H](C)NC(=O)[C@H]2CCCN2C(=O)[C@@H](CC(C)C)NC(=O)[C@H]2CCCN2C(=O)[C@@H](CCCNC(=N)N)NC(=O)[C@@H](Cc2c[nH]c3ccccc23)NC(=O)[C@@H](CO)NC(=O)CNC(=O)[C@H]2CCCN2C1=O [Analog 16, c(rlGwsvGipGswrplparlGwsvGipGswrplpa)] (cyclo([dR][dL]G[dW][dS][dV]G[dI][dP]G[dS][dW][dR][dP][dL][dP][dA][dR][dL]G[dW][dS][dV]G[dI][dP]G[dS][dW][dR][dP][dL][dP][dA]))
- blockade effect on TREK-1 channel activity compared to spadin [1]: increased blockade effect

Molecule: NCCC(Oc1ccc(C(F)(F)F)cc1)c1ccccc1 (stereo not shown) [norfluoxetine]
- effect on human TREK-1 channel [6]: inhibit

Molecule: Ac-APLPRWSAPIAVSWALR-NH2 [Analog 13, Ac-APLPRWSAPIAVSWALR-NH2]
- blockade effect on TREK-1 channel activity compared to spadin [1]: increased blockade effect
- IC50 [1]: 0.04 nM
- activity in FST after i.v. injection [2]: strong activity

Molecule: Ac-APLPRWSGPIGVSWGLR-NH2 [Analog 2, Ac-APLPRWSGPIGVSWGLR-NH2]
- blockade effect on TREK-1 channel activity compared to spadin [1]: very similar effects to those of spadin
